Data as given in patent US5214156A, “Therapeutically useful tetralin derivatives” (The Upjohn Company, priority 1992, dated 1993).
Read-outs that look alike come from different tables or passages of the source.

Legend:
dopamine receptors = conditions: background; cited from earlier work
5-HT receptor = assay: In-vivo tryptophan hydroxylation (5-HTP formation) in limbic forebrain of reserpine-pretreated rats after NSD 1015; set-up: species or system rat; conditions: limbic brain part
Protocol: In-vivo determination of rat brain tyrosine and tryptophan hydroxylation after reserpine pretreatment (biochemically monitored dopamine and 5-HT receptor activity)
The compounds under evaluation were tested biochemically for central dopamine and 5-HT receptor (pre- and/or postsynaptic) stimulating activity. The concept of this biochemical screening method is that a dopamine or 5-HT-receptor agonist will stimulate the receptor and through regulatory feedback systems effect a decline in tyrosine or tryptophan hydroxylating activity, respectively, and a subsequent reduction in the synthesis rate for dopamine and 5-HT in the presynaptic neuron. Dopamine and 5-HTP formation, as determined after in-vivo inhibition of the aromatic L-amino acid decarboxylase with NSD 1015 (3-hydroxybenzylhydrazine hydrochloride) are taken as indirect measures of dopamine and 5-HT-synthesis rates, respectively.
(§1) Rats (150-300 g) pretreated with reserpine (5 mg/kg, 18 hours before) were given the test compounds. Gross behavioral observations (changes in motility, hindleg abduction, etc.) were made. Subsequent administration of NSD 1015, decapitation, brain dissection (corpora striata, the limbic forebrain and the remaining hemispheral portions (mainly cortex) or rat brain), homogenization, centrifugation, ion-exchange chromatography and spectrofluorimetric measurements (all as described in detail by Wikstrom, et al., J. Med. Chem., 21, 864-867, 1978 and reference cited therein), or by HPLC/EC, gave the actual dopamine and 5-HTP levels. Several doses (n-4-6) were tested for each compound and brain area. The dose of a compound giving 50% of the maximal reduction of the %-HTP level in the rat brain part was then estimated.
^b Dose giving a half maximal decrease of 5HTP formation in the rat
limbic brain part. The values were estimated from doseresponse curves
comprising 4 to 6 levels (n = 4).
Control level was: 191 ng/g.

[1] = tested on: Reserpine Pretreated Rats; assay: Gross behavior (antagonism of reserpine-induced neuroleptic syndrome); assay type: in vivo, rat
Description: Antagonism of the reserpine-induced "neuroleptic syndrome" in the rat (gross behavior)
Depletion of the monoamine stores with reserpine brings about a "neuroleptic syndrome" characterized by hypomotility, catalepsy, muscle rigidity, hunch-backed posture as well as a number of other central and peripheral signs of monoamine depletion. The whole or parts of this syndrome can be reversed by the administration of drugs that stimulate dopamine or 5-HT receptors directly or indirectly.
Stimulation of the dopamine receptors, with apomorphine for example, gives rise to both locomotion and stereotyped behavior such as sniffing, gnawing and jumping. On the other hand, stimulation of the 5-HT receptors, with 5-hydroxytryptophane (5-HTP) combined with MAO-inhibitors for example, gives rise to a very different behavior.
as §1
^d The gross behavior of the animals was observed during the course o
the experiments. The 5HT behavioral syndrome consisted of flat body
psoture, abducted hind and forelegs, forepaw treading (pianoplaying) and […]

5-HT1A receptor = target: T1, 5-HT1A receptor (Homo sapiens, UniProt P08908); assay: In vitro binding, 5-HT1A
T1 sequence (P08908 1-422): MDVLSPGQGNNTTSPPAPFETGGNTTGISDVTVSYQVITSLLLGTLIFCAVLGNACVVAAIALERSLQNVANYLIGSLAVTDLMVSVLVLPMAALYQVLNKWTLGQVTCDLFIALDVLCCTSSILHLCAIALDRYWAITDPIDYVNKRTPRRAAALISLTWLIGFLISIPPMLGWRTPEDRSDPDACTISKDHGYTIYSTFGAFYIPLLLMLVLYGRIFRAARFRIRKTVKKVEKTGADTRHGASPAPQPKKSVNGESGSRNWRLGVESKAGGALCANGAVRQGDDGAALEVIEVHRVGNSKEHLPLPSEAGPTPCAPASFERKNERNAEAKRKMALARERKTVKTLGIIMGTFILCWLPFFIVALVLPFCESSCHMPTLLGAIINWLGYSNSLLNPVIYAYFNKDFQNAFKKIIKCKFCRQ
Description: The compounds of this invention where --OR1 is in the 8 position in the aromatic ring are very selective 5-HT1A receptor agonists having little or no dopaminergic activity. […] These compounds are particularly effective anxiolytic and antidepressant agents. Other uses for these compounds include panic attacks, obsessive-compulsive disturbances, and senile dementia particularly the emotional disturbances seen in dementia disorders. In addition, central 5-HT receptor activation are believed to be involved in mediating sexual behavior. These compounds would be useful to stimulate sexual activity and to alleviate impotence.

[2] = Bioavailability from ED50 values after s.c. and p.o. administration; assay type: in vivo, rat; conditions: comparing ED50 values, reserpine-pretreated rats
Description: ^f "Bioch" denotes the bioavailability as estimated by comparing the
ED50 values after s.c. and p.o. administration (reserpinepretreated rats)

dopamine D2 receptor = dopamine D2 receptor (Homo sapiens, UniProt P14416); assay: In vitro binding, dopamine D2
Protocol: ^e The affinity of the test compounds for dopamine D2 receptor sites
was determined by calculating the IC50 value (see text).

[3] = Bioavailability from decrease in rectal temperature after s.c. and p.o. administration; assay type: in vivo, rat; conditions: rectal temperature decrease after s.c. (25.0 μmol/kg) and p.o. (100.0 μmol/kg); nonpretreated rats
Description: "Temp" denotes the bioavailabilty as estimated by comparing the decrease
in rectal temperature after s.c. (25.0 μmol/kg) and p.o. (100.0
μmol/kg) administration of the test drugs in nonpretreated rats (c.f.,
FIGS. 1 and 2). "Plasma" denotes the availability as estimated by […]

[4] = Bioavailability from plasma drug levels (GC/MS) after s.c. and p.o. administration; assay type: in vivo, rat; conditions: plasma drug levels by GC/MS after s.c. and p.o.; nonpretreated rats
Description: FIGS. 1 and 2). "Plasma" denotes the availability as estimated by
comparing plasma drug levels (measured by means of GC/MS) after s.c. and
p.o. administration of test drugs in nonpretreated rats.

[5] = tested on: spontaneously hypertensive rats; assay: Blood pressure lowering in spontaneously hypertensive rats; assay type: in vivo, rat
Description: Pharmacol. 37, 263-265 (1984). Without further elaboration,it is believed that one skilled in the art can, using the preceding description, practice the present invention to its fullest extent.

Sequence of dopamine D2 receptor (P14416 whole entry, species assumed): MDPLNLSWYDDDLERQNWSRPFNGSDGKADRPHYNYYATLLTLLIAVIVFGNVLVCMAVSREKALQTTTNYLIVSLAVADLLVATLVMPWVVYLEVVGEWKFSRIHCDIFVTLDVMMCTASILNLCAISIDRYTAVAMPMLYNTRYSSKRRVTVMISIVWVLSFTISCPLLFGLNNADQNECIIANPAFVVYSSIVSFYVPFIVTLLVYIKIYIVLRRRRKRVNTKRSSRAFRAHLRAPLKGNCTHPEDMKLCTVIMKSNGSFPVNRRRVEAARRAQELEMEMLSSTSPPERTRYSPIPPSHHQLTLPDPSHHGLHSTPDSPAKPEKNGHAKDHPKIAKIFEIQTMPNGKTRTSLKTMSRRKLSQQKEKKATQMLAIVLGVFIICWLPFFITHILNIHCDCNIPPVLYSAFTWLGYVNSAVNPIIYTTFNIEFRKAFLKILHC

In the case of `O=C1CC2(CCCC2)CC(=O)N1CCCCN1CCN(c2ncccn2)CC1` [Buspirone], the “dopamine receptor antagonism / agonism” value (dopamine receptors) is given as “antagonizes dopamine receptors at the same dose it stimulates 5-HT1A receptors”.
With `CCCN(CC1CC1)C1CCc2cccc(OC)c2C1` (stereo not shown) [Example 8-OMe-CPMAT, 8Methoxy-2-(N-cyclopropylmethyl-N-n-propylamino)tetralin] the “ED50 5-HTP limb” value (5-HT receptor; po) was 3.3 µmol/kg, the “ED50 5-HTP limb” value (5-HT receptor; sc) was 0.40 µmol/kg and the Behavior ([1]; po) was 5-HT syndr. For the same compound, the Behavior ([1]; sc) was 5-HT syndr, the IC50 (5-HT1A receptor; in vitro binding, read-out: In vitro binding 5-HT1A IC50) was 6 nM and the Bioavailability bioch po/sc [2] was 12%.
For `COc1cccc2c1CC(N(CC1CC1)CC1CC1)CC2` (stereo not shown) [Example 8-OMe-DCPMAT, 8Methoxy-2-(N,N-dicyclopropylmethylamino)tetralin], the “ED50 5-HTP limb” value (5-HT receptor; po) was 2.0 µmol/kg, the “ED50 5-HTP limb” value (5-HT receptor; sc) was 1.2 µmol/kg and the Behavior ([1]; po) was 5-HT syndr. For the same compound, the Behavior ([1]; sc) was 5-HT syndr, the IC50 (dopamine D2 receptor) was 40000 nM and the IC50 (5-HT1A receptor) was 21 nM. The “IC50 ratio of dopamine D2 to 5HT1A in vitro binding (selectivity)” value (5-HT1A receptor; in vitro binding, Table 1 data) was “demonstrates the selectivity for the 5-HT1A receptor”, the Bioavailability bioch po/sc [2] was 60% and the Bioavailability temp po/sc [3] was 36%. For the same compound, the Bioavailability plasma po/sc [4] was 6-16%.
With `COc1cccc2c1C[C@H](N(CC1CC1)CC1CC1)CC2` [Example 12, (+)-R-8-Methoxy-2-(di-cyclopropyl-methylamino)tetralin] the “blood pressure lowering effects” value [5] was “demonstrate blood pressure lowering effects”.
For `COc1cccc2c1CC(N(CCc1cccs1)CC1CC1)CC2` (stereo not shown) [Example 17, 8-Methoxy-2-(N-cyclopropylmethyl-N-(2-thiophenethyl)-amino)tetralin], the “blood pressure lowering effects” value [5] was “demonstrate blood pressure lowering effects”.
For `CC1(C)CC(=O)N(CCCCN2CCN(c3ncccn3)CC2)C(=O)C1` [Gepirone], the “dopamine receptor antagonism / agonism” value (dopamine receptors) is listed as “has dopamine antagonist properties”.
For `CN1CCc2cccc3c2[C@H]1Cc1ccc(O)c(O)c1-3` [apomorphine], the “dopamine receptor antagonism / agonism” value (dopamine receptors) is given as “able to activate the dopamine autoreceptors as well as the post synaptic dopamine receptors”.
With “(-)-R-8-Methoxy-2-(di-cyclopropylmethylamino)tetralin [Example 13]” the “blood pressure lowering effects” value [5] was “demonstrate blood pressure lowering effects”.
